Common to all, as to experiment: cells
Holding throughout (set-up): species or system panel of 482 human cancer cell lines; ATPLite luminescence growth inhibition after treatment, nine-point dilution curve, 482 cancer cell lines, 384-well
What all share (details): 72 h, recommended growth medium

For assay [1], the system named is SKNFI_AUTONOMIC_GANGLIA. Here is the method: (§1) Cells were seeded in recommended growth media in black 384-well tissue culture treated plates at 500 cells per well. Cells were equilibrated in assay plates via centrifugation and placed in incubators for 24 h before treatment. […] Treated assay plates were incubated with compounds for 72 h and subsequently were developed for endpoint analysis using ATPLite. Each compound was assessed using a nine-point dilution curve. Cells were defined as sensitive to a given compound based on GI75 < 2 μM with manual quality control of curve fit. GI75 is defined as a drug concentration that causes a 75% reduction in assay readout relative to dimethyl sulfoxide (DMSO)-treated controls. To identify novel cancer vulnerabilities, we screened a panel of 482 cell lines with a diverse set of metabolic inhibitors. […] Given that SCLC is thought to arise from neuroendocrine cells in the lung[9], we tested the NB-598 sensitivity in a panel of 42 SCLC cell lines. We calculated a quantitative metric of sensitivity for each cell line based on the area under the curve (AUC) of the mu/mu.max curve to more accurately capture the potency and extent of NB-598 effects. […] We categorized the SCLC cell lines as sensitive (5/42), moderate (11/42), and insensitive (26/42) (Fig. 1c and Supplementary Data 2) and focused all subsequent efforts on this indication. […] To further understand the patterns of sensitivity, we conducted RNA sequencing (RNA-Seq; Supplementary Data 3) and proteomic (Supplementary Data 4) characterization of the SCLC panel to identify unbiased expression signatures associated with enhanced NB-598 response (Supplementary Fig. 1 and Supplementary Fig. 2). Given the growing understanding that SCLC tumors can be further subdivided based on the status of lineage-defining transcription factors, ASLC1 and NEUROD1, we specifically investigated NB-598 response as the function of ASCL1 and NEUROD1 expression levels. […] To further dissect the NB-598 response within the ASCL1-high/NEUROD-low subset of 25 cell lines, we identified RNA-Seq and proteomics expression signatures associated with NB

In assay [2] the test system is NCIH2405_LUNG. The procedure: as §1
Assay [3] concerns SNU61_LARGE_INTESTINE
Here is the method: as §1

In assay [4] the test system is MM1R_HAEMATOPOIETIC_AND_LYMPHOID_TISSUE. Here is the method: as §1
Assay [5] has as its system SNU175_LARGE_INTESTINE
Here is the method:
as §1

Assay [6] has as its system IM95_STOMACH. The procedure:
as §1

The test system of assay [7] is JHH6_LIVER. Here is the method:
as §1

For assay [8], the system named is TE4_OESOPHAGUS
Here is the method:
as §1

Assay [9] relates to SNU1066_UPPER_AERODIGESTIVE_TRACT. Here is the method:
as §1

For assay [10], the system named is CAL27_UPPER_AERODIGESTIVE_TRACT. Here is the method:
as §1

Assay [11] has as its system SNU16_STOMACH. The procedure:
as §1

The test system of assay [12] is TE14_OESOPHAGUS
The procedure:
as §1

The subject of assay [13] is 2313287_STOMACH. Here is the method:
as §1

Assay [14] deals with MORCPR_LUNG. Here is the method: as §1
The subject of assay [15] is YD10B_UPPER_AERODIGESTIVE_TRACT. The procedure: as §1
Assay [16] has as its system SKNBE2_AUTONOMIC_GANGLIA. The procedure:
as §1

Assay [17] deals with SUDHL2EPST_HAEMATOPOIETIC_AND_LYMPHOID_TISSUE. Here is the method:
as §1

As usually defined, the GI50 is the concentration that inhibits growth by half. Low values mean greater sensitivity of the cells, high ones lower sensitivity of the cells. Turning to `CCN(C/C=C/C#CC(C)(C)C)Cc1cccc(OCc2cc(-c3ccsc3)cs2)c1` [NB-598], the 50% growth inhibitory concentration (GI50) is 15.1 nM in assay [1]; 39.4 nM in assay [2]; 280 nM in assay [3]; 8870 nM in [4]; 243 nM in assay [5]; 11.8 nM in assay [6]. Besides, the 50% growth inhibitory concentration (GI50) in assay [7] turned out to be 8890 nM; in assay [8], 19500 nM; in assay [9], 121000 nM; in [10] it was 12400 nM; in assay [11], 27.3 nM; in [12], 164000 nM. Moreover, the concentration for 50% growth inhibition (GI50) is 2190 nM in [13]; 2690 nM in assay [14]; 71.4 nM in assay [15]; 20.3 nM in [16]; 25.7 nM in [17].

(Values after article PMC6327044, “A chemical biology screen identifies a vulnerability of neuroendocrine cancer cells to SQLE inhibition” (Nature Communications, 2019).)
